Data as given in article PMC8617031, “Development of a BCL-xL and BCL-2 dual degrader with improved anti-leukemic activity,” (Nature Communications, 2021).
Several values for one entry are separate records, joined by “and”; a condition that tells them apart may be missing. Equal values may be shown once. Read-outs that look alike come from different tables or passages of the source.

Molecular target: T1, His-tagged BCL-xL (Homo sapiens, UniProt Q07817)
T1 construct: purchased Sigma-Aldrich SRP0187
Assay: AlphaScreen competitive binary binding, BCL-xL (biotin-BAD peptide)
Settings: for inhibition at 0.000305176 µM / inhibition at 0.0012207 µM / inhibition at 0.00488281 µM / inhibition at 0.0195312 µM / inhibition at 0.078125 µM / inhibition at 0.3125 µM / inhibition at 1.25 µM / inhibition at 5 µM: read-out: Alpha signal normalised to Maximum/Minimum (inhibition)
Procedure: The reagents were diluted in a buffer containing 250 mM HEPES pH 7.5, 1 M NaCl, 1% BSA, and 0.05% Tween-80. His-tagged BCL-xL (0.5 nM, Cat. No. SRP0187, Sigma-Aldrich) or BCL-2 (1 nM, Cat. No. SRP0186, Sigma-Aldrich) were incubated with serial diluted 753a or 753b and 2 nM biotin-tagged BAD (biotin-[…] amino-terminal, AnaSpec, for BCL-xL) or 10 nM BIM peptides (biotin-[…] N-terminal, AnaSpec, for BCL-2) to a final volume of 40 µl in a 96-well PCR plate. […] After incubation for 2 h, 5 µl 6× His-acceptor beads (Cat. No. AL128M, PerkinElmer) were added to each well at 20 µg/ml final concentration and incubated for 1 h. Then 5 µl streptavidin-donor beads were added (Cat. No. 6760002, PerkinElmer) to each well at 20 µg/ml final concentration and incubated for 45 min. At the end of the incubation period, 17 µl of each sample was transferred in adjacent wells of 384-well proxy plate (Cat. No. 6008280, PerkinElmer). The plate was scanned using the Alpha program on Biotek’s Synergy Neo2 multimode plate reader. The inhibition constant (Ki) was calculated using the non-linear regression, one site, competitive binding, Fit Ki function on GraphPad Prism 9 software, based on experimentally determined dissociation constant (Kd) for each protein–peptide pair.

T1 sequence (Q07817 whole entry): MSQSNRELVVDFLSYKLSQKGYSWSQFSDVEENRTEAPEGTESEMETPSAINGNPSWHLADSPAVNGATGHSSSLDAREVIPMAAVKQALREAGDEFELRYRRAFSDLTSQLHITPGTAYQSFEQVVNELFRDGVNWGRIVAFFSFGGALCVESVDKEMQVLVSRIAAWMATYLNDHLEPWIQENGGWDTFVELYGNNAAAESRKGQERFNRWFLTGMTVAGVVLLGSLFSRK

- Alpha signal normalised to Maximum/Minimum (inhibition) (BCL-xL Rep-1, 0.000305176 uM, 0.000305176 µM): 28.4807
- inhibition at 0.000305176 µM (BCL-xL Rep-1, 0.000305176 uM): 32%
- Alpha signal normalised to Maximum/Minimum (inhibition) (BCL-xL Rep-1, 0.0012207 uM, 0.0012207 µM): 28.8475
- inhibition at 0.0012207 µM (BCL-xL Rep-1, 0.0012207 uM): 27.8%
- Alpha signal normalised to Maximum/Minimum (inhibition) (BCL-xL Rep-1, 0.00488281 uM, 0.00488281 µM): 50.9941
- inhibition at 0.00488281 µM (BCL-xL Rep-1, 0.00488281 uM): 46.4%
- Alpha signal normalised to Maximum/Minimum (inhibition) (BCL-xL Rep-1, 0.0195312 uM, 0.0195312 µM): 73.9595
- inhibition at 0.0195312 µM (BCL-xL Rep-1, 0.0195312 uM): 70.8%
- Alpha signal normalised to Maximum/Minimum (inhibition) (BCL-xL Rep-1, 0.078125 uM, 0.078125 µM): 89.8384
- inhibition at 0.078125 µM (BCL-xL Rep-1, 0.078125 uM): 90.1%
- Alpha signal normalised to Maximum/Minimum (inhibition) (BCL-xL Rep-1, 0.3125 uM, 0.3125 µM): 98.7717
- inhibition at 0.3125 µM (BCL-xL Rep-1, 0.3125 uM): 97.2%
- Alpha signal normalised to Maximum/Minimum (inhibition) (BCL-xL Rep-1, 1.25 uM, 1.25 µM): 99.2115
- inhibition at 1.25 µM (BCL-xL Rep-1, 1.25 uM): 98.7%
- Alpha signal normalised to Maximum/Minimum (inhibition) (BCL-xL Rep-1, 5 uM, 5 µM): 98.674
- inhibition at 5 µM (BCL-xL Rep-1, 5 uM): 99.7%
- Alpha signal (raw counts) (BCL-xL Rep-1, plate row B, 5 uM): 24284 and 38579
- Alpha signal (raw counts) (BCL-xL Rep-1, plate row C, 1.25 uM): 38335 and 30879
- Alpha signal (raw counts) (BCL-xL Rep-1, plate row D, 0.3125 uM): 59200 and 37180
- Alpha signal (raw counts) (BCL-xL Rep-1, plate row E, 0.078125 uM): 160796 and 165155
- Alpha signal (raw counts) (BCL-xL Rep-1, plate row F, 0.0195312 uM): 437862 and 392628
- Alpha signal (raw counts) (BCL-xL Rep-1, plate row G, 0.00488281 uM): 787377 and 721620
- Alpha signal (raw counts) (BCL-xL Rep-1, plate row H, 0.0012207 uM): 1053850 and 1038882
- Alpha signal (raw counts) (BCL-xL Rep-1, plate row I, 0.000305176 uM): 993971 and 1044138
- Alpha signal (raw counts) (BCL-xL Rep-1, plate row J, 7.62939e-5 uM): 1100587 and 1144199
- Alpha signal (raw counts) (BCL-xL Rep-1, plate row K, 1.90735e-5 uM): 1236998 and 1302696
- Alpha signal (raw counts) (BCL-xL Rep-2, 7.62939e-5 uM): 1461205 and 1360749
- Alpha signal normalised to Maximum/Minimum (inhibition) (BCL-xL Rep-2, 0.000305176 uM, 0.000305176 µM): 14.6957
- inhibition at 0.000305176 µM (BCL-xL Rep-2, 0.000305176 uM): 13%
- Alpha signal normalised to Maximum/Minimum (inhibition) (BCL-xL Rep-2, 0.0012207 uM, 0.0012207 µM): 16.3472
- inhibition at 0.0012207 µM (BCL-xL Rep-2, 0.0012207 uM): 24%
- Alpha signal normalised to Maximum/Minimum (inhibition) (BCL-xL Rep-2, 0.00488281 uM, 0.00488281 µM): 45.5298
- inhibition at 0.00488281 µM (BCL-xL Rep-2, 0.00488281 uM): 46%
- Alpha signal normalised to Maximum/Minimum (inhibition) (BCL-xL Rep-2, 0.0195312 uM, 0.0195312 µM): 63.2992
- inhibition at 0.0195312 µM (BCL-xL Rep-2, 0.0195312 uM): 60.9%
- Alpha signal normalised to Maximum/Minimum (inhibition) (BCL-xL Rep-2, 0.078125 uM, 0.078125 µM): 91.4929
- inhibition at 0.078125 µM (BCL-xL Rep-2, 0.078125 uM): 89.7%
- Alpha signal normalised to Maximum/Minimum (inhibition) (BCL-xL Rep-2, 0.3125 uM, 0.3125 µM): 98.2227
- inhibition at 0.3125 µM (BCL-xL Rep-2, 0.3125 uM): 97.4%
- Alpha signal normalised to Maximum/Minimum (inhibition) (BCL-xL Rep-2, 1.25 uM, 1.25 µM): 99.5826
- inhibition at 1.25 µM (BCL-xL Rep-2, 1.25 uM): 100%
- Alpha signal normalised to Maximum/Minimum (inhibition) (BCL-xL Rep-2, 5 uM, 5 µM): 99.8318
- inhibition at 5 µM (BCL-xL Rep-2, 5 uM): 99%
- Alpha signal (raw counts) (BCL-xL Rep-2, plate row B, 5 uM): 36635 and 25525
Compound: CC1(C)CCC(c2ccc(Cl)cc2)=C(CN2CCN(c3ccc(C(=O)NS(=O)(=O)c4ccc(N[C@H](CCN5CCOCC5)CSc5ccccc5)c(S(=O)(=O)C(F)(F)F)c4)cc3)CC2)C1 [ABT263, navitoclax]
